Data published in patent US20200069686A1, “N-SUBSTITUTED INDOLE DERIVATIVES” (Idorsia Pharmaceuticals Ltd, priority 2017, published 2020).
pIC50: −log10 of the molar value.

Key:
Type in all cases: cell-based
PTGER2 (EP2) = molecular target: T1, PTGER2 (EP2) (Homo sapiens, UniProt P43116); assay: hEP2 b-arrestin assay (PathHunter HEK 293 PTGER2 b-arrestin cells); conditions: PGE2 5 μM (EC80) as agonist, antagonistic activity, read-out: hEP2 beta-arrestin IC50
T1 construct: host or cells: HEK 293 (PathHunter PTGER2 b-arrestin cell line)
Method: (§1) The antagonistic activities of the compounds of formula (I) on the EP2 and EP4 receptors are determined in accordance with the following experimental methods.
(§2) The assay is using the PathHunter™ HEK 293 PTGER2 and PTGER4 b-arrestin cell lines from DiscoverX. The system is based on the Enzyme Fragment Complementation Technology. Two complementing fragments of the b-galactosidase enzyme are expressed within stably transfected cells. The larger portion of b-gal, termed EA for Enzyme Acceptor, is fused to the C-terminus of b-arrestin 2. The smaller fragment, termed ProLink™ tag, is fused to PTGER2 (EP2) or PTRGER4 (EP4) at the C-terminus. Upon activation, b-arrestin is recruited which forces the interaction of ProLink and EA, allowing complementation of the two fragments of b-gal and the formation of a functional enzyme which is capable of hydrolysing the substrate and generating a chemiluminescent signal.
(§3) The HEK 293 PTGER2 b-arrestin cells (DiscoverX 93-021-4C1) are detached from culture dishes with a cell dissociation buffer (Invitrogen, 13151-014), and collected in growing medium (GM: DMEM+Glutamax-I (Invitrogen 32430)/10% FCS, 1% Penicilin/streptomycin). 5000 cells per well of a 384 well plate (white with white bottom Greiner 781080) are seeded in 20 ul per well of GM. Plate is incubated at 37° C., 5% CO2 for 24 hours.
(§4) Stock solutions of test compounds are made at a concentration of 10 mM in DMSO, and serially diluted in DMSO to concentrations required for inhibition dose response curves (tested concentration range 10 μM-2 nM or 1 μM-0.2 nM).
PGE2 (Cayman 14010, stock solution: 10 mM in DMSO) is used as agonist at 5 μM final concentration, corresponding to EC80.
Five microliters of diluted compounds are transferred into the assay plate. Plate is pre-incubated 15 minutes at 37° C. Then five microliters of PGE2 (final conc. 5 μM) are transferred into the assay plate. Plate is incubated 120 minutes at 37° C.
(§5) PathHunter Glo Detection Kit components are thawed and mix according to manufacturers instructions: 1 part Galacton Star Substrate with 5 parts Emerald II™ Solution, and 19 parts of PathHunter Cell Assay Buffer, respectively. Twelve μL of reagent are transferred to the assay plate and incubate for 1 hour at room temperature in the dark. Luminescence counts are read on a BMG Fluostar Optima reader according to manufacturers instructions.
(§6) For each compound concentration calculate of the percentage of activity compared to DMSO control value as average ±STDEV. (each concentration is measured in duplicate)
(§7) IC50 values and curves are generated with XLfit software (IDBS) using Dose-Response One Site model 203. When compounds were measured multiple times, mean values are given.

EP2 = molecular target: T2, EP2 (Homo sapiens, UniProt P43116); assay: hEP2 cAMP assay (SF295 glioblastoma cells, HTRF cAMP); conditions: PGE2 75 nM (EC80) as agonist, antagonistic activity
T2 construct: SF295 glioblastoma cells express high endogenous EP2 and no EP4; endogenous in cells; host or cells: SF295 glioblastoma cells (NCI No. 0503170)
Method: (§8) The antagonistic activities of the compounds of formula (I) on the EP2 and EP4 receptors are also determined in accordance with the following experimental method.
(§9) Human tumor cell lines expressing endogenously either EP4 or EP2 are used and cAMP accumulation in cells upon PGE2 stimulation is monitored. SF295 glioblastoma cells express high endogenous EP2 and no EP4,whereas BT549 breast cancer cells, express high endogenous EP4 levels and very low EP2 levels.
(§10) As a detection method for cAMP the HTRF (homogeneous time resolved fluorescence) Cisbio kit (HTRF cAMP dynamic 2 kit 20′000 tests Cisbio Cat. #62AM4PEC) was used, which is based on a competitive immunoassay using a Cryptate-labeled anti-cAMP antibody and d2-labeled cAMP. Native cAMP produced by cells or unlabeled cAMP (for the standard curve) compete with exogenously added d2-labeled cAMP (acceptor) for binding to monoclonal anti-cAMP-Eu3+ Cryptate (donor). A FRET signal (Fluorescence Resonance Energy Transfer) is obtained only if the labeled anti-cAMP antibody binds the d2 labelled cAMP, thus the specific signal (i.e. energy transfer) is inversely proportional to the concentration of cAMP in the standard or sample.
(§11) The SF295 cells (NCl/No. 0503170) are detached from culture dishes with a cell dissociation buffer (Invitrogen, 13151-014), and collected in growing medium (GM: RPM11640 (Invitrogen 21875)/10% FCS, 1% Penicilin/streptomycin). Cells are counted washed and resuspended in assay buffer (AB; HBSS, 20 mM HEPES, 0.2% BSA; 2 mM IBMX). 4′000 cells in 5 μL of AB are seeded per well of a small volume 384 well plate (black with flat bottom, Greiner 784076).
Stock solutions of test compounds are made at a concentration of 10 mM in DMSO, and serially diluted in DMSO to concentrations required for inhibition dose response curves (tested concentration range 30 μM-0.4 nM; […] or 1 μM-0.01 nM).
PGE2 (Cayman 14010, stock solution: […] in DMSO) is used as agonist at 75 nM final concentration, corresponding to EC80.
(§12) 2.5 μL of diluted compounds are transferred into the assay plate. […] Five I of each donor (anti-cAMP cryptate) and acceptor (cAMP-d2) are added and the plate is incubated another hour at room temperature in the dark and then read using a BMG LABTECH PHERAstar reader (Excitation: 337 nm, Emission: 620 and 665 nm).
(§13) The obtained Delta F (fluorescence) values (665 nm/620 nM) are converted into % cAMP values using the measurements of the cAMP calibrator provided in the kit. For each compound concentration the percentage of cAMP compared to DMSO control value as average ±STDEV (each concentration is measured in duplicate) is calculated.
as §7

PTRGER4 (EP4) = molecular target: T3, PTRGER4 (EP4) (Homo sapiens, UniProt P35408); assay: hEP4 b-arrestin assay (PathHunter HEK 293 PTGER4 b-arrestin cells); conditions: PGE2 20 nM (EC80) as agonist, antagonistic activity, read-out: hEP4 beta-arrestin IC50
T3 construct: host or cells: HEK 293 (PathHunter PTGER4 b-arrestin cell line)
Method: as §1, §2
as §3, with “293 PTGER4” for “293 PTGER2”, “(DiscoverX 93-030-4C1)” for “(DiscoverX 93-021-4C1)”, “20 μl” for “20 ul”
as §4
PGE2 (Cayman 14010, stock solution: 100 uM in DMSO) is used as agonist at 20 nM final concentration, corresponding to EC80.
Five microliters of diluted compounds are transferred into the assay plate. Plate is pre-incubated 15 minutes at 37° C. Then five microliters of PGE2 (final conc. 20 nM) are transferred into the assay plate. Plate is incubated 120 minutes at 37° C.
as §5, with “I” for “μL”
as §6, §7

EP4 = molecular target: T4, EP4 (Homo sapiens, UniProt P35408); assay: hEP4 cAMP assay (BT549 breast cancer cells, HTRF cAMP); conditions: PGE2 6 nM (EC80) as agonist, antagonistic activity
T4 construct: BT549 breast cancer cells, express high endogenous EP4 levels and very low EP2 levels; endogenous in cells; host or cells: BT549 breast cancer cells (NCI No. 0507282)
Method: as §8, §9, §10
as §11, with “BT549” for “SF295”, “0507282)” for “0503170)”
Stock solutions of test compounds are made at a concentration of 10 mM in DMSO, and serially diluted in DMSO to concentrations required for inhibition dose response curves (tested concentration range 30 μM-0.4 nM; 30 μM-0.015 nM or 1 μM-0.01 nM).
PGE2 (Cayman 14010, stock solution: 6 μM in DMSO) is used as agonist at 6 nM final concentration, corresponding to EC80.
as §12, with “μL” for “I”
as §13, §7

T2 sequence (P43116 whole entry): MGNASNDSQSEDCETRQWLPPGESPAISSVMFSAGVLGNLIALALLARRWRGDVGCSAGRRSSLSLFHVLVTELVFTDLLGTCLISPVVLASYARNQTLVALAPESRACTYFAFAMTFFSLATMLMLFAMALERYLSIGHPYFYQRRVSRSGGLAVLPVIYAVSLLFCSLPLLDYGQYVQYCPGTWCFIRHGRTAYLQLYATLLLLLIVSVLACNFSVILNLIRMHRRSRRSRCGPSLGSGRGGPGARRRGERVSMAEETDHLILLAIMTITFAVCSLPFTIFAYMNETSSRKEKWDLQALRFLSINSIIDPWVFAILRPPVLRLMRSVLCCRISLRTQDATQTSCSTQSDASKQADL
T1 sequence (P43116 whole entry): as above
T4 sequence (P35408 whole entry): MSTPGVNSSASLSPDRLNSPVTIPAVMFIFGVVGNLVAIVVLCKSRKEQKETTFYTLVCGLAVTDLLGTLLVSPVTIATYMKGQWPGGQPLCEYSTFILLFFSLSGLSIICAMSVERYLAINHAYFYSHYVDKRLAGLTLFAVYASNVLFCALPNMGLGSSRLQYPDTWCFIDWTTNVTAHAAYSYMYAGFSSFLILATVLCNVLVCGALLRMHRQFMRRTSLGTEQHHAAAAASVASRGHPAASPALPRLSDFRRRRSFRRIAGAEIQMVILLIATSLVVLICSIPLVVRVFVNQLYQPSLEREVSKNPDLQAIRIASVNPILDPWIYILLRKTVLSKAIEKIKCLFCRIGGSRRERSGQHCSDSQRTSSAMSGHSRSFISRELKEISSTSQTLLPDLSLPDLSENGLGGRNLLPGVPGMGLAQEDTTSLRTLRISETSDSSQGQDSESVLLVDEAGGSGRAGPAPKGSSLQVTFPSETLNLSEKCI
T3 sequence (P35408 whole entry): as above

| SMILES | pIC50 (PTGER2 (EP2)) | pIC50 (EP2) | pIC50 (PTRGER4 (EP4)) | pIC50 (EP4) |
| --- | --- | --- | --- | --- |
| O=C(O)c1ccc(-c2cc(NCCn3c(Cl)cc4ccccc43)ncn2)cc1 [Example 4, 4-{6-[2-(2-Chloro-indol-1-yl)-ethylamino]-pyrimidin-4-yl}-benzoic acid] | 8.52 | 8.70 | 5.53 | 5.58 |
| N#Cc1cc2ccccc2n1CCNc1cc(-c2ccc(C(=O)O)cc2)ncn1 [Example 2, 4-{6-[2-(2-Cyano-indol-1-yl)-ethylamino]-pyrimidin-4-yl}-benzoic acid] | 7.96 | 8.00 | 5.69 | 5.87 |
| O=C(O)c1ccc(-c2cc(NCCn3c(Br)cc4ccccc43)ncn2)cc1 [Example 5, 4-{6-[2-(2-Bromo-indol-1-yl)-ethylamino]-pyrimidin-4-yl}-benzoic acid] | 7.77 |  | 5.30 |  |
| Cc1cc2ccccc2n1CCNc1cc(-c2ccc(C(=O)O)cc2)ncn1 [Example 1, 4-{6-[2-(2-Methyl-indol-1-yl)-ethylamino]-pyrimidin-4-yl}-benzoic acid] | 7.89 | 7.82 | 5.22 | 5.24 |
| Cc1cccc2cc(C)n(CCNc3cc(-c4ccc(C(=O)O)cc4)ncn3)c12 [Example 3, 4-{6-[2-(2,7-Dimethyl-indol-1-yl)-ethylamino]-pyrimidin-4-yl}-benzoic acid] | 8.10 | 8.30 | 4.96 | 5.25 |
